Measurements published in ChEMBL document CHEMBL1201862, “PubChem BioAssay data set” (2004).
The source made the active and inactive calls.

What was measured:
[1] = target: Tyrosine-protein phosphatase non-receptor type 11 (Homo sapiens, UniProt Q06124); assay: SHP2 phosphatase inhibition, dose response, selectivity assay for STEP inhibitor project, biochemical (AID 602367); format: functional; conditions: read-out: IC50_Mean
[2] = target: Tyrosine-protein phosphatase non-receptor type 5 (Homo sapiens, UniProt P54829); assay: STEP phosphatase inhibitors, confirmation, biochemical, fluorescence intensity, uHTS hits (AID 602372); format: functional; conditions: read-out: IC50_Mean
[3] = target: Dual specificity protein phosphatase 3 (Homo sapiens, UniProt P51452); assay: VHR phosphatase inhibition, dose response, selectivity assay for STEP inhibitor project, biochemical (AID 602374); format: functional; conditions: read-out: IC50_Mean
[4] = target: Voltage-dependent T-type calcium channel subunit alpha-1H (Homo sapiens, UniProt O95180); format: functional;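 note: channel activity triggered by adding a high calcium stimulation buffer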
[5] = target: T1, High affinity choline transporter 1 (Homo sapiens, UniProt Q9GZV3); assay: CHT inhibitors, dose response, cell-based, 5-point CRC, membrane potential dye (AID 504840); format: functional
T1 sequence (Q9GZV3 whole entry): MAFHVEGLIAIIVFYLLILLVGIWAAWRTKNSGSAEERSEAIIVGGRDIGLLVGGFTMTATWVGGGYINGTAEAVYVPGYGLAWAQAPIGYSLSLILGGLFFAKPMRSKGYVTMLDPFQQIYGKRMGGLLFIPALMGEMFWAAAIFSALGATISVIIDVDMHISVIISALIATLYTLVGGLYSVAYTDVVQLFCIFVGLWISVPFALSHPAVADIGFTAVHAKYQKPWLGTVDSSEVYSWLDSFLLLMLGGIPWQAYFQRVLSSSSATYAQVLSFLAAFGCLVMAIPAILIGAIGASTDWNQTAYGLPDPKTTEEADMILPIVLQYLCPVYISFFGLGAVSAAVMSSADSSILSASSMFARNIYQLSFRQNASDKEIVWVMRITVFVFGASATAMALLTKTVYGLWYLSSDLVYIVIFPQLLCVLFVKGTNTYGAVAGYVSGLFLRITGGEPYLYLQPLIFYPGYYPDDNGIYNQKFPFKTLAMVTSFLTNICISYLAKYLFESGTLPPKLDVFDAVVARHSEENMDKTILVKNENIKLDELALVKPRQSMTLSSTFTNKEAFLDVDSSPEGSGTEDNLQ

[6] = target: T1, High affinity choline transporter 1; assay: CHT inhibitors, dose response, cell-based, 10-point CRC, membrane potential dye (AID 588401); format: functional;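 note: membrane potential dye fluorescence of choline-evoked depolarization via CHT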
[7] = tested on: HEK293; assay: inhibitors of LMP1-driven NF-kB reporter, dose response, cell-based, HEK293, luciferase, cherry-pick (AID 588343); format: functional; conditions: Homo sapiens
[8] = target: T2, Interleukin-8 (Homo sapiens, UniProt P10145); assay: Dose Response confirmation of uHTS small molecule hits for cystic fibrosis induced NFkb Inhibitors in a TNFa-induced IL8 counterscreen.; format: functional; conditions: read-out: IC50_Mean
[9] = target: T2, Interleukin-8; assay: Dose Response confirmation of uHTS small molecule hits for cystic fibrosis induced NFkb Inhibitors in a PAF-induced IL8 counterscreen.; format: functional; conditions: read-out: IC50_Mean
[10] = target: Melanocortin receptor 4 (Homo sapiens, UniProt P32245); format: functional, cell-based;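 note: Cell-based assay with luminescence read-out, confirmatory dose-response testing for agonist activity of biased ligands at MC4R; human U2OS cells with tagged receptor and beta-arrestin; potency of agonists that increase receptor coupling to beta-arrestin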
[11] = target: T3, Beta-adrenergic receptor kinase 1 (Homo sapiens, UniProt P25098); assay: aptamer displacement from bead-bound GRK2 – biochemical, cherry pick 1, bead flow cytometry, dose response (AID 504500)
T3 sequence (P25098 whole entry): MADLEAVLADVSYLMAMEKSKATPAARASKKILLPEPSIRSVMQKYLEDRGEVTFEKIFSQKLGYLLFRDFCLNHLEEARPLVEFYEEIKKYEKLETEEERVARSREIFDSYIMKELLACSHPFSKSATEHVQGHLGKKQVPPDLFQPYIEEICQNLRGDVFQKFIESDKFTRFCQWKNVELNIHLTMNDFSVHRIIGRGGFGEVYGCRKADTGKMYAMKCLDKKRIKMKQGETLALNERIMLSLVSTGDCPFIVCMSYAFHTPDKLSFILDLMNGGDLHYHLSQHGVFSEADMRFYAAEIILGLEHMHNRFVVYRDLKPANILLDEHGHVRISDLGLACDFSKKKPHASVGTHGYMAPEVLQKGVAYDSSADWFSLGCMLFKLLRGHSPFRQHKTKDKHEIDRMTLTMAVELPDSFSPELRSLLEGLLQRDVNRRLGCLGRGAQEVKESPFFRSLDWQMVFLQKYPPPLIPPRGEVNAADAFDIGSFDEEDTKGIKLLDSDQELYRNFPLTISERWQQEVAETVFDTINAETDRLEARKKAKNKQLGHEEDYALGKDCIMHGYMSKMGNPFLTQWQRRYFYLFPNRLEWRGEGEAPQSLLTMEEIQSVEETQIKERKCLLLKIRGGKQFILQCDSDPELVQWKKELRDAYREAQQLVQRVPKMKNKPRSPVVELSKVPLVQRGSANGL

[12] = target: T4, Carboxy-terminal domain RNA polymerase II polypeptide A small phosphatase 1 (Homo sapiens, UniProt Q9GZU7); assay: inhibitors of CTDSP1, concentration-response testing, biochemical assay, absorbance-based, actives from ultra-high-throughput screening (AID 540297); format: functional
T4 sequence (Q9GZU7 whole entry): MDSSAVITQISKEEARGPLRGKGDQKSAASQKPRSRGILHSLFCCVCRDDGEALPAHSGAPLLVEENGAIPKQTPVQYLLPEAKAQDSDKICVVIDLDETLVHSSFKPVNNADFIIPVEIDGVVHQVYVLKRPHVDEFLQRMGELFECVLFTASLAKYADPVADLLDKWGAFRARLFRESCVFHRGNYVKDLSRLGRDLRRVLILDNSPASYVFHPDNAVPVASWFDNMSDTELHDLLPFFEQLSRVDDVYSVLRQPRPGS

[13] = target: T5, Caspase-6 (Homo sapiens, UniProt P55212); assay: human caspase-6 inhibitors, dose response, biochemical, VEID-R110 fluorescence, cherry-pick (AID 720632)
T5 sequence (P55212 whole entry): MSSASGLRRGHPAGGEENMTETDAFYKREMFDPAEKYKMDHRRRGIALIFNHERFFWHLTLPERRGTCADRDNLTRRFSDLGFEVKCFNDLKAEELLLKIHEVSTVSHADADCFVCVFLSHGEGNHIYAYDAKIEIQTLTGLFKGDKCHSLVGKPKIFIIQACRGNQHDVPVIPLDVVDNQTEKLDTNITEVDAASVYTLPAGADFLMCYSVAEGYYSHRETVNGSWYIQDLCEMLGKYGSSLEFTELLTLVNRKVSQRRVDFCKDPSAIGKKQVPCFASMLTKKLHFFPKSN

[14] = target: DNA dC->dU-editing enzyme APOBEC-3A (Homo sapiens, UniProt P31941); assay: SAR analysis of small molecule inhibitors of APOBEC3A DNA Deaminase via a fluorescence-based single-stranded DNA deaminase assay - Set 2.; format: functional; conditions: read-out: IC50_Mean
[15] = target: DNA dC->dU-editing enzyme APOBEC-3G (Homo sapiens, UniProt Q9HC16); assay: SAR analysis of small molecule inhibitors of APOBEC3G DNA Deaminase via a fluorescence-based single-stranded DNA deaminase assay - Set 2.; format: functional; conditions: read-out: IC50_Mean
[16] = target: T6, Apoptotic protease-activating factor 1 (Homo sapiens, UniProt O14727); assay: SAR analysis of small molecule Activators of Apaf-1 in a Fluorescent assay.; format: functional; conditions: read-out: EC50_Mean;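 note: caspase-3 cleavage of fluorogenic Rh110 DEVD substrate downstream of apoptosome activation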
T6 sequence (O14727 whole entry): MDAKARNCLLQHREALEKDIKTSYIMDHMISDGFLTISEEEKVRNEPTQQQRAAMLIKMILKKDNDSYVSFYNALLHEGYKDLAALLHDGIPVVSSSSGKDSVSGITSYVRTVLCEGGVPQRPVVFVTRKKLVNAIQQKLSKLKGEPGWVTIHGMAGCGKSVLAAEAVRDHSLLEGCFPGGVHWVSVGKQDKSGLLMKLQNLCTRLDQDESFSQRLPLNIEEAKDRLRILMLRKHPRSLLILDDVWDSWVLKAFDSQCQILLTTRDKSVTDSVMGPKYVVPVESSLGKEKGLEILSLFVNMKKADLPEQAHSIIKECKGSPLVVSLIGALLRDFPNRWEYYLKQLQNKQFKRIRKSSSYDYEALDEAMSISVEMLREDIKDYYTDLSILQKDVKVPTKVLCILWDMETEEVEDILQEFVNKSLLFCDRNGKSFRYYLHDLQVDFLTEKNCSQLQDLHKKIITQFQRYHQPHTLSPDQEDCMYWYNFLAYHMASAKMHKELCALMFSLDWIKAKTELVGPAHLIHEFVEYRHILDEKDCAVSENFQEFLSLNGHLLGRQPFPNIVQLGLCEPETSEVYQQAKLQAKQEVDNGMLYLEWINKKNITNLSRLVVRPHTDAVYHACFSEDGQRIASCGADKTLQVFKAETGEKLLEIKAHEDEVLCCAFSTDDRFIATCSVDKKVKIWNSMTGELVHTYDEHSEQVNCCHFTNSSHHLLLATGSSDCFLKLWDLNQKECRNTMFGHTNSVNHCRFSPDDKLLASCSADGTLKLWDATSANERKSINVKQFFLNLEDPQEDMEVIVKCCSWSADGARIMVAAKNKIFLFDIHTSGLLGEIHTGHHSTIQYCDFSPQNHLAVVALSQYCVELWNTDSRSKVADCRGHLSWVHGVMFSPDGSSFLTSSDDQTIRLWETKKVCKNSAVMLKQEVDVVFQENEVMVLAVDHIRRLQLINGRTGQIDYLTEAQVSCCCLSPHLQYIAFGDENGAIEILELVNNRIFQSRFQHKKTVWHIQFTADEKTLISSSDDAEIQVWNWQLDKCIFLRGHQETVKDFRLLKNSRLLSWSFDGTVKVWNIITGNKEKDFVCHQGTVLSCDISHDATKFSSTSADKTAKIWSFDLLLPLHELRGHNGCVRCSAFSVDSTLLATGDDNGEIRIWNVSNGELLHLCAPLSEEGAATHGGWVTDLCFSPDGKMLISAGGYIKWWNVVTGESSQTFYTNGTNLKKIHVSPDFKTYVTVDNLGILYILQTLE

T2 sequence (P10145 whole entry): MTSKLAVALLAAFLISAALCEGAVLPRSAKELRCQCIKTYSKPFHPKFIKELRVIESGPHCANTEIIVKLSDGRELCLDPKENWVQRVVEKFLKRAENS
Sequence of Tyrosine-protein phosphatase non-receptor type 5 (P54829 whole entry): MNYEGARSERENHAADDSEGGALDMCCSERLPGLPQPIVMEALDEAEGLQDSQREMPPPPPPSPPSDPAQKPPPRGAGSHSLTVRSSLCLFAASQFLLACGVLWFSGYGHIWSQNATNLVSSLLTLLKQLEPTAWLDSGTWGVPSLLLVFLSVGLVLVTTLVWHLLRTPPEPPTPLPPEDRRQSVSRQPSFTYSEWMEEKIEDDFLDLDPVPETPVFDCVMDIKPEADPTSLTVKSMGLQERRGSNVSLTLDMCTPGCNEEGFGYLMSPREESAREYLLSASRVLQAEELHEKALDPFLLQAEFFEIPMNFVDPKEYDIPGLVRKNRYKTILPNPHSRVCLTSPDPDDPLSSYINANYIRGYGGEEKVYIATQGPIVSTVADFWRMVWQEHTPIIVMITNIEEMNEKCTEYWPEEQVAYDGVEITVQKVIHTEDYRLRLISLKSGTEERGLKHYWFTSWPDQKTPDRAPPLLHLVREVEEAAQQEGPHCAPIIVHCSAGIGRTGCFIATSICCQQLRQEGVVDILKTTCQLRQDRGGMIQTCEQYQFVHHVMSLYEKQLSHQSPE
Sequence of Tyrosine-protein phosphatase non-receptor type 11 (Q06124 whole entry): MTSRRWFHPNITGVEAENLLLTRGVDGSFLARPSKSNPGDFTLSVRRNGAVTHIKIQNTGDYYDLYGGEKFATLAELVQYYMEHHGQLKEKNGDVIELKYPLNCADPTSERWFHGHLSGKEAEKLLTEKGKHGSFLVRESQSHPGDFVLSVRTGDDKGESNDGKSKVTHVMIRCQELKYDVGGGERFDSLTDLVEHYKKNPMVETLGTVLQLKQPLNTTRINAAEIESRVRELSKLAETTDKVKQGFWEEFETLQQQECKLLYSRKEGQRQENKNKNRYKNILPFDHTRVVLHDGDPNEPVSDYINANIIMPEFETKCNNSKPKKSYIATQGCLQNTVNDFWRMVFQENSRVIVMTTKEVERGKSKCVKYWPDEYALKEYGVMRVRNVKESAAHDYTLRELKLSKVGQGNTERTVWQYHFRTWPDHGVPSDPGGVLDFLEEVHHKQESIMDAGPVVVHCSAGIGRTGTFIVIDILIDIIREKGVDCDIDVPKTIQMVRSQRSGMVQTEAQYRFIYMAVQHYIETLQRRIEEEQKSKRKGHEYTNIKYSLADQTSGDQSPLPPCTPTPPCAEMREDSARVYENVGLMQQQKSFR
Sequence of DNA dC->dU-editing enzyme APOBEC-3A (P31941 whole entry): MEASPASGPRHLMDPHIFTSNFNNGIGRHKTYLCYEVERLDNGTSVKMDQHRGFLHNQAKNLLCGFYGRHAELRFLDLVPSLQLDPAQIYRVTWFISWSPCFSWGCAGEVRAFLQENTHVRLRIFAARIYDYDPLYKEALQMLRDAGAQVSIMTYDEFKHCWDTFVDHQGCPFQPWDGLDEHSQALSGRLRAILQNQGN
Sequence of Voltage-dependent T-type calcium channel subunit alpha-1H (O95180 whole entry): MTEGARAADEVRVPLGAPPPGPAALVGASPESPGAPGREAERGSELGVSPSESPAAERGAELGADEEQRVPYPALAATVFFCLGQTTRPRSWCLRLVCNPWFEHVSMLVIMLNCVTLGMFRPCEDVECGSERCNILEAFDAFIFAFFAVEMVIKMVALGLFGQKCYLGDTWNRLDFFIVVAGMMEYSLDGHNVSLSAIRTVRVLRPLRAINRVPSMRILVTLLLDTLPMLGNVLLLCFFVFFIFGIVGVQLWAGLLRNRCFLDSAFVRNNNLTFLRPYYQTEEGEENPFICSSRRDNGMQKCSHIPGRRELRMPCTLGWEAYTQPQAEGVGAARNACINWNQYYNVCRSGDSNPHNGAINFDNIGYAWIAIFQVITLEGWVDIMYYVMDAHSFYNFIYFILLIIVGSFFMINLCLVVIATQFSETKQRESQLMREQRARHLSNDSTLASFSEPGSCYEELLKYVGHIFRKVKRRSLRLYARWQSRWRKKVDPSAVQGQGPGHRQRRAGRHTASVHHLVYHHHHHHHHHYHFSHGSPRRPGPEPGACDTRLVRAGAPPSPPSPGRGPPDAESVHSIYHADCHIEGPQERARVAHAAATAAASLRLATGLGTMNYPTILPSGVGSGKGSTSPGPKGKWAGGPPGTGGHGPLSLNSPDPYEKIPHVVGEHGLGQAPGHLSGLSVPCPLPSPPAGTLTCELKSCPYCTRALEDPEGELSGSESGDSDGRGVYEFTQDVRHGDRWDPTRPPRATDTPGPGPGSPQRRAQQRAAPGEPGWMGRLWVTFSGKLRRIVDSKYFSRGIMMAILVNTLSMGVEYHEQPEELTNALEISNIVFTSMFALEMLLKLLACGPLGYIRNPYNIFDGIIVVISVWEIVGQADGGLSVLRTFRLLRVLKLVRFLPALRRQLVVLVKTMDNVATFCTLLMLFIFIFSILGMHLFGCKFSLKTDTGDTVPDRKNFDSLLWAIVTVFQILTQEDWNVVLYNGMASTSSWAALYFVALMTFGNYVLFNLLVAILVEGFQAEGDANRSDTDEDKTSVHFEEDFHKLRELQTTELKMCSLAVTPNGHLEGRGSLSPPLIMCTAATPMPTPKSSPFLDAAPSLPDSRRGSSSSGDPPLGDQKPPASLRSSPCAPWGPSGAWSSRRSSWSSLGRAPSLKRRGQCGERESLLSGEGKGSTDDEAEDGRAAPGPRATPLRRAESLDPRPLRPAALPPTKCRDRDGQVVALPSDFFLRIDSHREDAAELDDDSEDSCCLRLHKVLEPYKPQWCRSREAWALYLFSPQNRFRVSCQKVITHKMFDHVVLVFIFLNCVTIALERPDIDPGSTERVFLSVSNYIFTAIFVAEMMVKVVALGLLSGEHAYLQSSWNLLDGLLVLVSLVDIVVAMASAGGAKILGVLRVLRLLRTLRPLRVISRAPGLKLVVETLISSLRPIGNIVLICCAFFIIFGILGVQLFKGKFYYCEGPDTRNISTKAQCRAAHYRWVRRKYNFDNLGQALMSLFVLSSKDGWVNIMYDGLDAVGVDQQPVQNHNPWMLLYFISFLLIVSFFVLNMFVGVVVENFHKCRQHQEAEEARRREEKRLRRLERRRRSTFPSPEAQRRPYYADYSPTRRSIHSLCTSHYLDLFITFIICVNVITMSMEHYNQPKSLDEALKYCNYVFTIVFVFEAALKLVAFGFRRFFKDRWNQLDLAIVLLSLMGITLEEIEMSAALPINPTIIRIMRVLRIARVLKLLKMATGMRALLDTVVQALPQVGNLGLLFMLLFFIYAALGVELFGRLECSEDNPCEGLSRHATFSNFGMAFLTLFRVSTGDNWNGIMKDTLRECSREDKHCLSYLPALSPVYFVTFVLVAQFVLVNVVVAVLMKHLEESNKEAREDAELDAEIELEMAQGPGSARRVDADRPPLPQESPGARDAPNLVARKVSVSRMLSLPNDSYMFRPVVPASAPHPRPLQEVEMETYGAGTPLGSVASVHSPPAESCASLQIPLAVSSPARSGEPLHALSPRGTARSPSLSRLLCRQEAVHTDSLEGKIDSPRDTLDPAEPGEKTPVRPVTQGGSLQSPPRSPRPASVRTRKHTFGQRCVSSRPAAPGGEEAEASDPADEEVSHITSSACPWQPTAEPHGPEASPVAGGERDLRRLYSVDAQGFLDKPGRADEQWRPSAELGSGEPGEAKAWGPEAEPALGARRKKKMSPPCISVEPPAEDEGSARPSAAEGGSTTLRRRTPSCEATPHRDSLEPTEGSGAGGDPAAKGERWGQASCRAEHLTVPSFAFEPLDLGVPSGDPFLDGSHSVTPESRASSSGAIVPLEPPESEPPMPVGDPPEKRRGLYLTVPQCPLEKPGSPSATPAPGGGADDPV
Sequence of Dual specificity protein phosphatase 3 (P51452 whole entry): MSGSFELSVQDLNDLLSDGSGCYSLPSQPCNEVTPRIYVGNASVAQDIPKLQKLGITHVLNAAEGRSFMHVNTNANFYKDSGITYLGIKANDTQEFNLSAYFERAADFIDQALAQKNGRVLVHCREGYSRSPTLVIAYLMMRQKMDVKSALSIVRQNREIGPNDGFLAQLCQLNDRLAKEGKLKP
Sequence of DNA dC->dU-editing enzyme APOBEC-3G (Q9HC16 whole entry): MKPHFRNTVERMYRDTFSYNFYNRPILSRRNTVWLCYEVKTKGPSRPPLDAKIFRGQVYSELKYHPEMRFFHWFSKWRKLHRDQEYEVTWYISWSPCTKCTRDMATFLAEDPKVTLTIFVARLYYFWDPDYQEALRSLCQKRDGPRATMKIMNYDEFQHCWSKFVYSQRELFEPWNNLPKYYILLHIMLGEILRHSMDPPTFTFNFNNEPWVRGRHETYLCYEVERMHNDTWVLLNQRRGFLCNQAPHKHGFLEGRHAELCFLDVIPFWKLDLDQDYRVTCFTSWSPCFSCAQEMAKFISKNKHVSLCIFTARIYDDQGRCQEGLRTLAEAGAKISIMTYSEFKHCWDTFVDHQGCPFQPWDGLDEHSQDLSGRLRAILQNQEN
Sequence of Melanocortin receptor 4 (P32245 whole entry): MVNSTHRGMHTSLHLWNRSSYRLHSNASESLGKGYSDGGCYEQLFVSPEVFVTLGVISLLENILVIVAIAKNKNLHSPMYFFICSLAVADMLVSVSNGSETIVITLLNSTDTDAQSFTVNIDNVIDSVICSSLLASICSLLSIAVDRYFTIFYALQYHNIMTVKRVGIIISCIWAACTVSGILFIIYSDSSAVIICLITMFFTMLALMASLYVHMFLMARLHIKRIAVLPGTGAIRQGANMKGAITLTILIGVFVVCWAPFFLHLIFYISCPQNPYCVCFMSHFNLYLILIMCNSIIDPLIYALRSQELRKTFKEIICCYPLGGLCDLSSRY

Q: With `CCCN(CC(=O)Nc1ccccc1OC)C(=O)Cc1ccc2c(c1)CCC2` as the molecule, how does the IC50 [1] read?
A: The IC50 was 4.79 µM (active).

Q: What about the IC50 [2] of the same molecule?
A: Its IC50 is 19.5 µM (active).

Q: What about the IC50 [3] of the same molecule?
A: Its IC50 is 1.32 µM (active).

Q: Which EC50 [4] does the source give for `O=C(Nc1nnc(C(F)(F)F)s1)C1COc2ccccc2O1` (stereo unspecified) here?
A: Its EC50 is 6.26 µM (active).

Q: And the IC50 [5]?
A: The IC50 was 1.55 µM (active).

Q: What about the IC50 [6] of the same molecule?
A: The IC50 was 1.26 µM (active).

Q: For `Cc1cc(N2CCOCC2)c2c(N)c(Br)cc(C)c2n1`, which AC50 [7] is on record?
A: Its AC50 is 8.08 µM (active).

Q: And the IC50 [8]?
A: The IC50 was > 79 µM (inactive).

Q: And the IC50 [9]?
A: The IC50 was 8.34 µM (active).

Q: For `Cc1ccc2[nH]c(=O)c3cc(C(=O)N(CCCOC(C)C)Cc4ccco4)sc3c2c1`, which EC50 [10] is on record?
A: Its EC50 is > 89.2 µM (inactive).

Q: With `CCOc1ccc(CCNC(=O)C2CC(C)=CCC2C(=O)O)cc1OCC` (stereo unspecified) as the molecule, how does the EC50 [11] read?
A: Its EC50 is 51.3 µM (inactive).

Q: What about the IC50 [12] of the same molecule?
A: Its IC50 is 21 µM (active).

Q: And the AC50 [13]?
A: The AC50 was 15.5 µM (active).

Q: With `CN(Cc1ccccc1)C(=O)c1nn2cccnc2c1Cl` as the molecule, how does the IC50 [14] read?
A: The IC50 was 73.8 µM (inactive).

Q: What about the IC50 [15] of the same molecule?
A: Its IC50 is > 99 µM (inactive).

Q: Which EC50 [16] does the source give for `COC(=O)C(C)(N)Cc1c[nH]c2ccccc12` (stereo unspecified) here?
A: Its EC50 is > 100 µM (inactive).
